According to PubChem BioAssay AID2060909 (Molecular Pharmacology Branch, DTP, NCI, 2025):

System: 362531-283-R-J2-PDC complex spheroid viability
Test: Anticancer human tumor 362531-283-R-J2-PDC patient-derived colon adenocarcinoma cell line growth inhibition [RAS]
Conditions: for IC50: curve of first compound; for viability, T/C: stronger effect = lower value
Method in brief: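 Multi-cell-type spheroids: tumor cells plus HUVEC endothelial cells and mesenchymal stem cells. RAS-pathway inhibitors were combined with targeted agents, each dosed in half-log steps down from clinical Cmax, or from 10 microM when Cmax was unknown.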

[1] = second compound 0.000949 µM, first compound 0.0316 µM
[2] = second compound 0.000949 µM, first compound 0.1 µM
[3] = second compound 0.000949 µM, first compound 0.316 µM
[4] = second compound 0.000949 µM, first compound 1 µM
[5] = second compound 0.000949 µM, first compound 3.16 µM
[6] = second compound 0.000949 µM, first compound 10 µM
[7] = second compound 0.003 µM, first compound 0.0316 µM
[8] = second compound 0.003 µM, first compound 0.1 µM
[9] = second compound 0.003 µM, first compound 0.316 µM
[10] = second compound 0.003 µM, first compound 1 µM
[11] = second compound 0.003 µM, first compound 3.16 µM
[12] = second compound 0.003 µM, first compound 10 µM
[13] = second compound 0.00949 µM, first compound 0.0316 µM
[14] = second compound 0.00949 µM, first compound 0.1 µM
[15] = second compound 0.00949 µM, first compound 0.316 µM
[16] = second compound 0.00949 µM, first compound 1 µM
[17] = second compound 0.00949 µM, first compound 3.16 µM
[18] = second compound 0.00949 µM, first compound 10 µM
[19] = second compound 0.03 µM, first compound 0.0316 µM
[20] = second compound 0.03 µM, first compound 0.1 µM
[21] = second compound 0.03 µM, first compound 0.316 µM
[22] = second compound 0.03 µM, first compound 1 µM
[23] = second compound 0.03 µM, first compound 3.16 µM
[24] = second compound 0.03 µM, first compound 10 µM
[25] = second compound 0.0949 µM, first compound 0.0316 µM
[26] = second compound 0.0949 µM, first compound 0.1 µM
[27] = second compound 0.0949 µM, first compound 0.316 µM
[28] = second compound 0.0949 µM, first compound 1 µM
[29] = second compound 0.0949 µM, first compound 3.16 µM
[30] = second compound 0.0949 µM, first compound 10 µM
[31] = second compound 0.3 µM, first compound 0.0316 µM
[32] = second compound 0.3 µM, first compound 0.1 µM
[33] = second compound 0.3 µM, first compound 0.316 µM
[34] = second compound 0.3 µM, first compound 1 µM
[35] = second compound 0.3 µM, first compound 3.16 µM
[36] = second compound 0.3 µM, first compound 10 µM
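Further: spheroids exposed to the agents for 7 days before readout.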
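Wherever viability, T/C is given: luminescence viability as percent of DMSO vehicle control wells.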

CC1(O)CCCC1n1c(=O)c(C(F)F)cc2cnc(NC3CCN(S(C)(=O)=O)CC3)nc21 (stereo unspecified) + CCn1c(-c2cc(N3CCN(C)CC3)cnc2C(C)OC)c2c3cc(ccc31)-c1csc(n1)CC(NC(=O)C1CC1C)C(=O)N1CCCC(N1)C(=O)OCC(C)(C)C2
IC50 (second compound 0.000949 µM): 5.44 µM | IC50 (second compound 0.003 µM): 6.11 µM | IC50 (second compound 0.00949 µM): 8.98 µM | IC50 (second compound 0.03 µM): 5.9 µM | IC50 (second compound 0.0949 µM): > 10 µM | IC50 (second compound 0.3 µM): < 0.0316 µM | viability, T/C [1]: 97.7% | viability, T/C [2]: 97.5% | viability, T/C [3]: 98% | viability, T/C [4]: 79.5% | viability, T/C [5]: 57.6% | viability, T/C [6]: 42.2% | viability, T/C [7]: 109% | viability, T/C [8]: 112% | viability, T/C [9]: 97.4% | viability, T/C [10]: 76.9% | viability, T/C [11]: 61.5% | viability, T/C [12]: 42.4% | viability, T/C [13]: 94.6% | viability, T/C [14]: 111% | viability, T/C [15]: 108% | viability, T/C [16]: 83.5% | viability, T/C [17]: 65.5% | viability, T/C [18]: 47.5% | viability, T/C [19]: 99.2% | viability, T/C [20]: 99.1% | viability, T/C [21]: 89.4% | viability, T/C [22]: 87% | viability, T/C [23]: 69.2% | viability, T/C [24]: 33.9% | viability, T/C [25]: 80.7% | viability, T/C [26]: 79.2% | viability, T/C [27]: 78.6% | viability, T/C [28]: 68.2% | viability, T/C [29]: 56.4% | viability, T/C [30]: 61% | viability, T/C [31]: 37.4% | viability, T/C [32]: 50.2% | viability, T/C [33]: 37.7% | viability, T/C [34]: 55.8% | viability, T/C [35]: 45.9% | viability, T/C [36]: 7.05%

CCC(CC)c1cc(NC2CCC(N)C2)n2nccc2n1 (stereo unspecified) + CCn1c(-c2cc(N3CCN(C)CC3)cnc2C(C)OC)c2c3cc(ccc31)-c1csc(n1)CC(NC(=O)C1CC1C)C(=O)N1CCCC(N1)C(=O)OCC(C)(C)C2
IC50 (second compound 0.000949 µM): 4.55 µM | IC50 (second compound 0.003 µM): 4.56 µM | IC50 (second compound 0.00949 µM): 4.58 µM | IC50 (second compound 0.03 µM): 4.8 µM | IC50 (second compound 0.0949 µM): 4.69 µM | IC50 (second compound 0.3 µM): < 0.0316 µM | viability, T/C [1]: 94.5% | viability, T/C [2]: 116% | viability, T/C [3]: 99.3% | viability, T/C [4]: 101% | viability, T/C [5]: 71.2% | viability, T/C [6]: 4.02% | viability, T/C [7]: 103% | viability, T/C [8]: 108% | viability, T/C [9]: 96.6% | viability, T/C [10]: 98.4% | viability, T/C [11]: 71.4% | viability, T/C [12]: 3.89% | viability, T/C [13]: 102% | viability, T/C [14]: 141% | viability, T/C [15]: 97.5% | viability, T/C [16]: 94.7% | viability, T/C [17]: 76% | viability, T/C [18]: 3.54% | viability, T/C [19]: 101% | viability, T/C [20]: 103% | viability, T/C [21]: 89.8% | viability, T/C [22]: 99.4% | viability, T/C [23]: 76.1% | viability, T/C [24]: 3.95% | viability, T/C [25]: 90.2% | viability, T/C [26]: 86.8% | viability, T/C [27]: 81.2% | viability, T/C [28]: 85.6% | viability, T/C [29]: 74.1% | viability, T/C [30]: 3.61% | viability, T/C [31]: 47.8% | viability, T/C [32]: 51.8% | viability, T/C [33]: 45% | viability, T/C [34]: 27.9% | viability, T/C [35]: 4.3% | viability, T/C [36]: 3.52%

Cc1nc(N2CCC3(CC2)COC(C)C3N)c(CO)nc1Sc1ccnc(N)c1Cl (stereo unspecified) + CCn1c(-c2cc(N3CCN(C)CC3)cnc2C(C)OC)c2c3cc(ccc31)-c1csc(n1)CC(NC(=O)C1CC1C)C(=O)N1CCCC(N1)C(=O)OCC(C)(C)C2
IC50 (second compound 0.000949 µM): > 10 µM | IC50 (second compound 0.003 µM): > 10 µM | IC50 (second compound 0.00949 µM): 7.34 µM | IC50 (second compound 0.03 µM): 1.87 µM | IC50 (second compound 0.0949 µM): 0.529 µM | IC50 (second compound 0.3 µM): < 0.0316 µM | viability, T/C [1]: 95.4% | viability, T/C [2]: 122% | viability, T/C [3]: 89% | viability, T/C [4]: 93.7% | viability, T/C [5]: 86.4% | viability, T/C [6]: 70.5% | viability, T/C [7]: 103% | viability, T/C [8]: 113% | viability, T/C [9]: 94.8% | viability, T/C [10]: 89.6% | viability, T/C [11]: 92.8% | viability, T/C [12]: 72.4% | viability, T/C [13]: 104% | viability, T/C [14]: 113% | viability, T/C [15]: 84.7% | viability, T/C [16]: 88.9% | viability, T/C [17]: 88% | viability, T/C [18]: 37.1% | viability, T/C [19]: 102% | viability, T/C [20]: 104% | viability, T/C [21]: 74.3% | viability, T/C [22]: 68.9% | viability, T/C [23]: 36.9% | viability, T/C [24]: 7.23% | viability, T/C [25]: 77.7% | viability, T/C [26]: 77% | viability, T/C [27]: 65.2% | viability, T/C [28]: 30.9% | viability, T/C [29]: 8.1% | viability, T/C [30]: 4.24% | viability, T/C [31]: 47.3% | viability, T/C [32]: 37.8% | viability, T/C [33]: 18.9% | viability, T/C [34]: 6.49% | viability, T/C [35]: 5.54% | viability, T/C [36]: 3.65%
